Patent US20230015949A1, “NEISSERIA TREATMENT USING CANNABINOIDS” (priority 2019, published 2023)
Converted amounts (≈) assume the structure as drawn. Like-named read-outs stand apart in the source and are kept apart here.

Legend:
Format in all cases: cell-based
Neisseria gonorrhoeae [1] = assay: Agar dilution MIC assay, 25 isolates (Example 3); conditions: for MIC: Neisseria gonorrhoeae, agar dilution
Description: The MIC of Neisseria gonorrhoea was established using an agar dilution MIC assay.
Test drugs were provided by Micromyx. All stock solutions were allowed to stand for at least 1 hr prior to use to auto-sterilize. Leftover stock solutions of comparator drugs were aliquoted and stored at −80° C. Suppliers, catalog/lot numbers, solvents, stock concentrations and testing ranges were as follows.
Test organisms were reference strains from the American Type Culture Collection (ATCC; Manassas, Va.), isolates from WHO, isolates from the CDC antibiotic resistance bank, and clinical isolates from the Micromyx (MMX) repository. Upon receipt at Micromyx, the isolates were streaked under suitable conditions onto agar medium appropriate to each organism and were incubated for 24-48 hr at 35° C. Colonies harvested from these growth plates were resuspended in the appropriate medium containing a cryoprotectant. Aliquots of each suspension were then frozen at −80° C.
Prior to testing, the isolates were sub-cultured onto Chocolate agar (Becton Dickenson [BD]/BBL; Sparks, Md., Cat. No. 221267, Lot No. 9346275) and placed at 35° C. in a CO2 incubator for 24 hrs.
MIC values were determined using the agar dilution method (1, 2). All serial dilutions and liquid handling were performed by hand using sterile pipettes. […] Cannabidiol was prepared as a stock solution at 100× the final concentration in the appropriate solvent and diluted according to CLSI guidelines.
Each test agent was mixed with molten (50-55° C.) GC media agar supplemented with 1% IsoVitalex. […] All other test agents were added to the medium in a ratio of 0.2 mL 100× test agent to 19.8 mL agar. Once test agents were added to the agar in a sterile tube, they were mixed gently and then poured into a sterile 110×15 mm petri dish. Plates were allowed to solidify at room temperature and placed in a laminar air flow hood with the covers off to remove condensed moisture on the agar surface.
Next, each isolate was suspended to the equivalent of a 0.5 McFarland standard in saline using a Siemens Microscan turbidity meter and diluted 1:10. Each bacterial cell suspension was then transferred to wells in a stainless-steel replicator block. The prongs on the replicator deliver approximately 1-2 μl of inoculum to an agar surface. The resulting inoculum spots contained approximately 10^4 cells/spot.
Each agar plate containing either test compound or no drug (control) was stamped with the replicator. All plates were placed with the agar surface up to allow for the inoculum to soak into the agar. The plates were inverted and incubated at 35° C. for 24 hrs in a CO2 incubator and finally inspected for growth.

[2] = tested on: Staphylococcus aureus ATCC 29213; assay: Broth microdilution MIC assay, quality control strain (Example 2); conditions: ATCC29213, S. aureus ATCC 29213 (QC), CAMHB
Description: Following incubation, colonies were harvested from these plates and cell suspensions prepared and frozen at −80° C. with a cryoprotectant. Prior to testing, N. gonorrhoeae isolates were streaked onto Chocolate Agar [Becton Dickinson, (BD), Sparks, Md.; Lot No. 922807]; Staphylococcus aureus ATCC 29213 tested for quality control (QC) purposes was streaked onto Trypticase Soy Agar with 5% Sheep Blood (TSA II; BD; Lot No. 9219399).
Cation-adjusted Mueller Hinton broth (CAMHB; BD; Lot No. 9019592) was used for MIC testing of S. aureus ATCC 29213 for QC purposes.
MIC values were determined using a broth microdilution procedure described by CLSI (1, 2). Automated liquid handlers (Multidrop 384, Labsystems, Helsinki, Finland; Biomek 2000 and Biomek FX, Beckman Coulter, Fullerton Calif.) were used to conduct serial dilutions and liquid transfers.
(§1) To prepare the drug mother plates, which would provide the serial drug dilutions for the replicate daughter plates, the wells of columns 2 through 12 of standard 96-well microdilution plates (Costar 3795) were filled with 150 μl of the designated diluent for each row of drug. The test articles and comparator compounds (300 μl at 100× the highest concentration to be tested) were dispensed into the appropriate wells in column 1. The Biomek 2000 was then used to make 2-fold serial dilutions in the mother plates from column 1 through column 11. The wells of column 12 contained no drug and served as the organism growth control wells for the assay.
(§2) The daughter plates were loaded with 190 μL per well of the appropriate test medium for the tested organism using the Multidrop 384. The daughter plates were completed on the Biomek FX instrument which transferred 2 μL of drug solution from each well of a mother plate to the corresponding well of each daughter plate in a single step. Daughter plates for the testing of anaerobes were allowed to pre-reduce in the Bactron II anaerobe chamber for 2 hr prior to inoculation.
(§3) A standardized inoculum of each test organism was prepared per CLSI methods (1, 2). The inoculum for each organism was dispensed into sterile reservoirs divided by length (Beckman Coulter), and the Biomek 2000 was used to inoculate the plates. Daughter plates were placed on the Biomek 2000 work surface in reverse orientation so that inoculation took place from low to high drug concentration. Anaerobic organisms were inoculated by hand in the Bactron II anaerobic chamber. Bacterial plates were then inoculated with 10 μL of the inoculum resulting in a final cell density of approximately 5×10^5 CFU/mL.
Plates were stacked 3 to 4 high, covered with a lid on the top plate and placed in plastic bags. […] The MIC was read and recorded as the lowest concentration of drug that inhibited visible growth of the organism.

Neisseria gonorrhoeae [3] = assay: Broth microdilution MIC testing (Example 1)
Description: (§4) In this study, to evaluate the spectrum of activity, cannabidiol (CBD) was profiled against Neisseria. Testing was conducted following guidelines recommended by the Clinical and Laboratory Standards Institute (CLSI, 1-4), using vancomycin, meropenem, levofloxacin, and gentamicin as comparators for testing aerobic bacteria.
(§5) Test agents were supplied by Micromyx. Stock solutions of all compounds were prepared on the first day of testing at 101× the highest test concentration using solvents recommended by CLSI. CBD was prepared fresh on each of testing.
(§6) The test organisms evaluated in this study consisted of clinical isolates from the Micromyx Repository, reference isolates from the American Type Culture Collection (ATCC; Manassas, Va.), isolates from the antibiotic resistance bank from the Centers for Disease Control and Prevention (CDC; Atlanta, Ga.), and isolates from the Network on Antimicrobial Resistance in Staphylococcus aureus (NARSA; BEI Resources, Manassas, Va.). Upon initial receipt at Micromyx, the organisms were sub-cultured onto an appropriate agar medium. Following incubation, colonies were harvested from these plates and cell suspensions prepared and frozen at −80° C. with a cryoprotectant.
(§7) Prior to testing, Neisseria was streaked onto Chocolate agar (BD; Lot No. 9228071) and incubated at 35° C. in 5% CO2 for 24 hr.
(§8) For Neisseria, a modified medium described by the ATCC as capable of supporting growth was used. This medium contains 15 g Oxoid Special Peptone, 1 g corn starch (Ward's Science; Rochester, N.Y.; Lot 39-3271), 5 g NaCl (VWR; 57897), 4 g K2HPO4 (Sigma; Lot SLBT7061), 1 g KH2PO4 (SLBC1921V), and 1% IsoVitaleX (BD; Lot 8323954) enrichment per 500 mL.
(§9) MIC values were determined using a broth microdilution procedure described by CLSI (1-4). Automated liquid handlers (Multidrop 384, Labsystems, Helsinki, Finland; Biomek 2000 and Biomek FX, Beckman Coulter, Fullerton, Calif.) were used to conduct serial dilutions and liquid transfers.
as §1, with “article” for “articles”, “101×” for “100×”
as §2, with “step.” for “step. Daughter plates for the testing of anaerobes were allowed to pre-reduce in the Bactron II anaerobe chamber for 2 hr prior to inoculation.”
as §3, with “(1-4).” for “(1, 2).”, “Plates” for “Anaerobic organisms”, “were” for “were inoculated by hand in the Bactron II anaerobic chamber. Bacterial plates were then”, “CFU/mL per well.” for “CFU/mL.”
The plates for testing of aerobic organisms were stacked 3 to 4 high, covered with a sterile lid, and incubated at 35° C. and 5% CO2 for the time periods specified in CLSI (1-4). […] Following incubation, the microplates were removed from the incubator and viewed from the bottom using a plate viewer. […] The MIC was read and recorded as the lowest concentration of drug that inhibited visible growth of the organism.

Neisseria meningitidis = assay: Broth microdilution MIC testing (Example 1)
Description: as §4, §5, §6, §7, §8, §9
as §1, with “article” for “articles”, “101×” for “100×”
as §2, with “step.” for “step. Daughter plates for the testing of anaerobes were allowed to pre-reduce in the Bactron II anaerobe chamber for 2 hr prior to inoculation.”
A standardized inoculum of each test organism was prepared per CLSI methods (1-4). The inoculum for each organism was dispensed into sterile reservoirs divided by length (Beckman Coulter), and the Biomek 2000 was used to inoculate the plates. […]
The plates for testing of aerobic organisms were stacked 3 to 4 high, covered with a sterile lid, and incubated at 35° C. and 5% CO2 for the time periods specified in CLSI (1-4). […] The MIC was read and recorded as the lowest concentration of drug that inhibited visible growth of the organism.

[4] = 25 isolates, agar dilution assay, MIC distribution
[5] = Neisseria gonorrhoeae, ATCC49226, N. gonorrhoeae MMX 0683 / ATCC 49226, broth microdilution, plate read at 40 hr, read-out: MIC
[6] = Neisseria gonorrhoeae, N. gonorrhoeae MMX 6746, broth microdilution, read-out: MIC
[7] = Neisseria gonorrhoeae, N. gonorrhoeae MMX 6757, broth microdilution, plate read at 40 hr, read-out: MIC
[8] = Neisseria meningitidis, ATCC13090, N. meningitidis MMX 0707 / ATCC 13090, broth microdilution, read-out: MIC

For O=C(O)c1cn(C2CC2)c2cc(N3CCNCC3)c(F)cc2c1=O [CIP, ciprofloxacin], the “Number of isolates at MIC 0.015 μg mL^−1” value (Neisseria gonorrhoeae [1]; [4]) was 3, the “Number of isolates at MIC 0.03 μg mL^−1” value (Neisseria gonorrhoeae [1]; [4]) was 0 and the “Number of isolates at MIC 0.06 μg mL^−1” value (Neisseria gonorrhoeae [1]; [4]) was 0. For the same compound, the “Number of isolates at MIC 0.12 μg mL^−1” value (Neisseria gonorrhoeae [1]; [4]) was 1, the “Number of isolates at MIC 0.25 μg mL^−1” value (Neisseria gonorrhoeae [1]; [4]) was 0 and the “Number of isolates at MIC 0.5 μg mL^−1” value (Neisseria gonorrhoeae [1]; [4]) was 0. The “Number of isolates at MIC 1 μg mL^−1” value (Neisseria gonorrhoeae [1]; [4]) was 0, the “Number of isolates at MIC 4 μg mL^−1” value (Neisseria gonorrhoeae [1]; [4]) was 2 and the “Number of isolates at MIC >8 μg mL^−1” value (Neisseria gonorrhoeae [1]; [4]) was 11. For the same compound, the “Number of isolates at MIC ≤0.004 μg mL^−1” value (Neisseria gonorrhoeae [1]; [4]) was 6, the MIC (Neisseria gonorrhoeae [1]; N. gonorrhoeae CDC 0177) was 0.015 µg/mL (≈ 0.0453 µM) and the MIC (Neisseria gonorrhoeae [1]; N. gonorrhoeae CDC 0181) was 0.015 µg/mL (≈ 0.0453 µM). It also gave an MIC (Neisseria gonorrhoeae [1]; NCTC13478, N. gonorrhoeae NCTC 13478 (WHO G)) of 0.12 µg/mL (≈ 0.362 µM), an MIC (Neisseria gonorrhoeae [1]; NCTC13481, N. gonorrhoeae NCTC 13481 (WHO M)) of 2 µg/mL (≈ 6.04 µM) and an MIC (Neisseria gonorrhoeae [1]; NCTC13483, N. gonorrhoeae NCTC 13483 (WHO O)) of 0.015 µg/mL (≈ 0.0453 µM). The MIC [2] was 0.25 µg/mL (≈ 0.754 µM).

gentamicin showed an MIC (Neisseria gonorrhoeae [3]; N. gonorrhoeae MMX 0683 / ATCC 49226, broth microdilution, plate read at 40 hr) of 4 µg/mL, an MIC (Neisseria gonorrhoeae [3]; N. gonorrhoeae MMX 6746, broth microdilution) of 16 µg/mL and an MIC (Neisseria gonorrhoeae [3]; N. gonorrhoeae MMX 6757, broth microdilution, plate read at 40 hr) of 8 µg/mL. It also gave an MIC (Neisseria meningitidis; N. meningitidis MMX 0707 / ATCC 13090, broth microdilution) of 8 µg/mL.

CN[C@H](CC(C)C)C(=O)N[C@H]1C(=O)N[C@@H](CC(N)=O)C(=O)N[C@H]2C(=O)N[C@H]3C(=O)N[C@H](C(=O)N[C@H](C(=O)O)c4cc(O)cc(O)c4-c4cc3ccc4O)[C@H](O)c3ccc(c(Cl)c3)Oc3cc2cc(c3O[C@@H]2O[C@H](CO)[C@@H](O)[C@H](O)[C@H]2O[C@H]2C[C@](C)(N)[C@H](O)[C@H](C)O2)Oc2ccc(cc2Cl)[C@H]1O [VAN, vancomycin] gave an MIC (Neisseria gonorrhoeae [3]; Neisseria gonorrhoeae) of 16 µg/mL (≈ 11 µM), an MIC (Neisseria gonorrhoeae [3]; Neisseria gonorrhoeae, 40 h) of 32 µg/mL (≈ 22.1 µM) and an MIC (Neisseria gonorrhoeae [3]; Neisseria gonorrhoeae, ATCC49226, 40 h) of 8 µg/mL (≈ 5.52 µM). The MIC (Neisseria meningitidis; Neisseria meningitidis, ATCC13090) was > 32 µg/mL.

For C[C@@H](O)[C@H]1C(=O)N2C(C(=O)O)=C(S[C@@H]3CN[C@H](C(=O)N(C)C)C3)[C@H](C)[C@H]12 [MEM, meropenem], the MIC (Neisseria gonorrhoeae [3]; [5]) was < 0.03 µg/mL, the MIC (Neisseria gonorrhoeae [3]; [6]) was 0.06 µg/mL (≈ 0.156 µM) and the MIC (Neisseria gonorrhoeae [3]; [7]) was < 0.03 µg/mL. For the same compound, the MIC (Neisseria meningitidis; [8]) was < 0.03 µg/mL.

Compound C[C@H]1COc2c(N3CCN(C)CC3)c(F)cc3c(=O)c(C(=O)O)cn1c23 [LVX, levofloxacin] has an MIC (Neisseria gonorrhoeae [3]; [5]) of 0.002 µg/mL (≈ 0.00553 µM), an MIC (Neisseria gonorrhoeae [3]; [6]) of 4 µg/mL (≈ 11.1 µM) and an MIC (Neisseria gonorrhoeae [3]; [7]) of 0.015 µg/mL (≈ 0.0415 µM). For the same compound, the MIC (Neisseria meningitidis; [8]) was 0.004 µg/mL (≈ 0.0111 µM).
